Data as given in the Kinase Knowledgebase extract (Sharma et al. 2016).

Target: PIK3CD (Human) (UniProt O00329)
Test: Enzyme Assay

Sequence of PIK3CD (Human) (O00329 whole entry, looked up): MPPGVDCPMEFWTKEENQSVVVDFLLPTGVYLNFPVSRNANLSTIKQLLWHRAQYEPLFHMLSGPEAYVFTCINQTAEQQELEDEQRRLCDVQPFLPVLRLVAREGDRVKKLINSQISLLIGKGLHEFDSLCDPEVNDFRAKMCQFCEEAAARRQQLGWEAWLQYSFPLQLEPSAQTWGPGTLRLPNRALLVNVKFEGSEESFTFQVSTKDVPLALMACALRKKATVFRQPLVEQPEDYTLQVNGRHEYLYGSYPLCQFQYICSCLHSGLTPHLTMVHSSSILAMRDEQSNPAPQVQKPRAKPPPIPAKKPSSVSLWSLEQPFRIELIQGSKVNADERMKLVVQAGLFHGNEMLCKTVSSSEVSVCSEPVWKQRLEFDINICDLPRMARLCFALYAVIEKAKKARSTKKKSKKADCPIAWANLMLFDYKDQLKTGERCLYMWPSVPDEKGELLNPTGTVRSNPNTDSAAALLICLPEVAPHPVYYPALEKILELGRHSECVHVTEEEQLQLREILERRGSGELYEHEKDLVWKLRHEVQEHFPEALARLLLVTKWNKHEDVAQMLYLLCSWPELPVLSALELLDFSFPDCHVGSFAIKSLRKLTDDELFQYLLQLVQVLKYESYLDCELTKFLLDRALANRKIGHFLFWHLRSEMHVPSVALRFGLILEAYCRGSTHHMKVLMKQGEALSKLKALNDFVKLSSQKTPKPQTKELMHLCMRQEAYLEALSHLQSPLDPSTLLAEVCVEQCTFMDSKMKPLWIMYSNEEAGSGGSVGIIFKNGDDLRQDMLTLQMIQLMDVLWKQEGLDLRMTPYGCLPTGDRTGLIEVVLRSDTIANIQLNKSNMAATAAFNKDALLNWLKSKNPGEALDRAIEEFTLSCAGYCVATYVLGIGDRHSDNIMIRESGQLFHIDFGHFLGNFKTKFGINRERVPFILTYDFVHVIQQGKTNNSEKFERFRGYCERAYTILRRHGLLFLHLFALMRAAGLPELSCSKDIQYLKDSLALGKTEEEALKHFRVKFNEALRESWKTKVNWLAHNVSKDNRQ

SMILES	Ki
C[C@@H](Nc1ncnc(N)c1C#N)c1nc2ccc(F)cc2n1-c1cncc(NS(C)(=O)=O)c1.C[C@H](Nc1ncnc(N)c1C#N)c1nc2ccc(F)cc2n1-c1cncc(NS(C)(=O)=O)c1	14.4 nM
C[C@@H](Nc1ncnc(N)c1C#N)c1nc2ccc(F)cc2n1-c1ccc(-c2cccnc2)nc1	1190 nM
C[C@@H](Nc1ncnc(N)c1C#N)c1nc2cccc(C#N)c2n1-c1cncc(F)c1.C[C@H](Nc1ncnc(N)c1C#N)c1nc2cccc(C#N)c2n1-c1cncc(F)c1	177 nM
C[C@@H](Nc1ncnc(N)c1C#N)c1nc2ccc(F)cc2n1-c1cncc(Br)c1.C[C@H](Nc1ncnc(N)c1C#N)c1nc2ccc(F)cc2n1-c1cncc(Br)c1	46.1 nM
C[C@@H](Nc1ncnc(N)c1C#N)c1nc2ccc(F)cc2n1-c1cccc(C#N)c1.C[C@H](Nc1ncnc(N)c1C#N)c1nc2ccc(F)cc2n1-c1cccc(C#N)c1	28.8 nM
CNC(=O)c1cccc2nc([C@@H](C)Nc3ncnc(N)c3C#N)n(-c3cncc(F)c3)c12.CNC(=O)c1cccc2nc([C@H](C)Nc3ncnc(N)c3C#N)n(-c3cncc(F)c3)c12	90.1 nM
C[C@@H](Nc1ncnc(N)c1C#N)c1nc2c(F)cc(F)cc2n1-c1cccnc1.C[C@H](Nc1ncnc(N)c1C#N)c1nc2c(F)cc(F)cc2n1-c1cccnc1	22.2 nM
C[C@@H](Nc1ncnc(N)c1C#N)c1nc2cccc(Br)c2n1-c1cncc(F)c1.C[C@H](Nc1ncnc(N)c1C#N)c1nc2cccc(Br)c2n1-c1cncc(F)c1	69.7 nM
CNC(=O)c1cccc(-n2c([C@@H](C)Nc3ncnc(N)c3C#N)nc3ccc(F)cc32)c1.CNC(=O)c1cccc(-n2c([C@H](C)Nc3ncnc(N)c3C#N)nc3ccc(F)cc32)c1	30.6 nM
C[C@@H](Nc1ncnc(N)c1C#N)c1nc2cccc(S(C)(=O)=O)c2n1C1CC1.C[C@H](Nc1ncnc(N)c1C#N)c1nc2cccc(S(C)(=O)=O)c2n1C1CC1	3.76 nM
C[C@@H](Nc1ncnc(N)c1C#N)c1nc2c(F)cccc2n1-c1cncc(F)c1.C[C@H](Nc1ncnc(N)c1C#N)c1nc2c(F)cccc2n1-c1cncc(F)c1	86.1 nM
C[C@H](Nc1ncnc(N)c1C#N)c1nc2ccc(F)cc2n1-c1ccc(-c2cccnc2)nc1	248 nM
C[C@@H](Nc1ncnc(N)c1C#N)c1nc2ccc(F)cc2n1-c1cccc(F)n1.C[C@H](Nc1ncnc(N)c1C#N)c1nc2ccc(F)cc2n1-c1cccc(F)n1	24.7 nM
C[C@@H](Nc1ncnc(N)c1C#N)c1nc2cc(F)ccc2n1-c1cncc(F)c1.C[C@H](Nc1ncnc(N)c1C#N)c1nc2cc(F)ccc2n1-c1cncc(F)c1	148 nM
C[C@@H](Nc1ncnc(N)c1C#N)c1nc2ncccc2n1-c1ccccn1.C[C@H](Nc1ncnc(N)c1C#N)c1nc2ncccc2n1-c1ccccn1	2900 nM
